Values of other authors as cited in patent US20090221462A1, “Fragrance compositions” (priority 2005, published 2009).

Details: at 25° C.

O=C(O)Cc1ccccc1 [phenylacetic acid]
pKa: 4.28

O=C(O)C=Cc1ccccc1 [cinnamic acid]
pKa (cis) (cis isomer): 3.89
